Measured values taken from patent US20020054880A1, “Anti-inflammatory, tolerogenic and immunoinhibiting properties of carbohydrate binding-peptides” (priority 1992, published 2002).

Columns and labels:
[1] = molecular target: T1, ACS2P1-biotin binding to fetuin (Bordetella pertussis, UniProt P04978, G45S); conditions: saccharide 8 mM; n=3
T1 construct: 2; ACS2P1-b; 9-23; made in house; host or cells: chemical synthesis

[2] = molecular target: T2, ACS2P1-biotin binding to fetuin (Bordetella pertussis, UniProt P04978); conditions: saccharide 8 mM in PBS; 0.1 μg ACS2P1-biotin; fetuin 3 μg/ml; + enhancement, − inhibition
T2 construct: 2; ACS2P1-b; 9-23; made in house; host or cells: chemical synthesis

[3] = molecular target: SPYGRC-biotin binding to fetuin (Bordetella pertussis, UniProt P04978); assay: Inhibition of SPYGRC-biotin binding to fetuin by simple saccharides; conditions: saccharide 8 mM in PBS, 0.5 μg SPYGRC-biotin, fetuin 3 μg/ml, + enhancement
Method: Binding inhibition assays were done using sialic acid, sialyllactose, lactose, or N-acetyl-glucosamine at a concentration of 8 mM in PBS. […] The pH of free sialic acid was carefully monitored and adjusted to physiological pH values with dilute sodium hydroxide.

[4] = molecular target: T3, PT-biotin binding to fetuin (Bos taurus, UniProt P12763); assay: PT-biotin binding to fetuin, binding inhibition assay; design: species or system Bordetella pertussis; conditions: for Percent Changes in Binding Activity PT/fetuin: peptide mg/mL: S2PL 1.2, ACS2P1 1.0, S2(14-2.3) 1.0, S2P2 1.1, S2P3 0.51, S2P4 0.98, S2P6 0.85, S3P1 3.2, S3P2 3.1, S3P3 4.5, S3P4 3.3, S3P5 0.48, S3P9a 1.7, SPYGRC 4.4, S2(WGA) 1.0, WGA (62-73) 1.0, + enhancement, − inhibition
T3 construct: purchased Sigma Chemical Company (fetuin); Connaught Center for Biotechnology Research (PT)
T3 sequence (P12763 19-359): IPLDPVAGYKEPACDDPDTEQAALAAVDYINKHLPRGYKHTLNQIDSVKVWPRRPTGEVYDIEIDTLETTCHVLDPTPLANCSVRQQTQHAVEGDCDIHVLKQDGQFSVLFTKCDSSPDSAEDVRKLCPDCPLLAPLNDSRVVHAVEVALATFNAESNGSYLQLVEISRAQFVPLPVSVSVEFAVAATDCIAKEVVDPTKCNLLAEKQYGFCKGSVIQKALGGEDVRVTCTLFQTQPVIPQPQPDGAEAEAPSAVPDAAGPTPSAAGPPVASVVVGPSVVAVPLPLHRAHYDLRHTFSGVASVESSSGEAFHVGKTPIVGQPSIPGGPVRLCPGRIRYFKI
Method: (§1) Peptides ranging in concentration from 0.5 to 4.5 mg/ml in PBS (40 μl) were added to each well and PT-biotin (10 μl containing 10 ng in PBS) was then added to the microtiter wells. […] Horseradish peroxidase-conjugated avidin (100 μl, 1/3000 dilution in PBST to a concentration of 0.3 μg/ml) was then added to the wells, and the plates were incubated at ambient temperature for 1 hour. […] Color development was recorded at 405 nm using a Titertek Multiskan MC plate reader. […] Binding assays for each peptide were done in duplicate. Binding inhibition experiments utilizing SNA-, WGA-, and MAL-biotin were performed as described above using 10 ng of each biotinylated lectin in PBS.
(§2) Binding assays for each inhibitor concentration were done at least in duplicate, and the average value varied less than 15%.

[5] = molecular target: T4, ACS2P1-biotin binding to asialofetuin (Bos taurus, UniProt P12763); assay: Screening of S2 and S3 peptides for inhibition of ACS2P1-biotin binding to asialofetuin; conditions: for Percent Change in Binding Activity Asialofetuin: peptide μM: ACS2P1 4.1, S2P2 42.5, SPYGRC 5520, S2P3 22.4, S2P4 6.0, S2P6 319, S3P1 1142, S3P2 934, S3P3 16.1, S3P4 6.4, S3P5 22.5, ACS2P1-biotin 0.1 μg, − inhibition, + enhancement
T4 construct: made in house
T4 sequence (P12763 19-359): T3 sequence (P12763 19-359)

[6] = system: pertussis toxin binding to Chinese Hamster ovary (CHO) cell; assay: CHO cell neutralization of pertussis toxin (cell clumping); format: cell-based; conditions: PT 2.4 ng/ml, peptide and PT 1 hour, triplicate
Method: Confluent monolayers of CHO cells were lifted from plastic tissue culture flasks with 0.25% trypsin and suspended at a concentration of 5×10^4 cells/ml in Ham's F12 media containing 10% fetal bovine serum (FBS). 100 μl of the cell suspension was added to 96 well tissue culture plates and were allowed to establish contact with the plastic for 24 to 48 hours. The expended media was then removed and filtered-sterilized peptide 5-fold dilutions ranging in concentration from 300 to 30 femptogram per ml (80 μl) in Ham' F12 media containing FBS were added to the CHO cells. […] The incubation mixtures were gently mixed and incubated at 37° C. for 1 hour in a CO2 incubator. The incubation mixtures were then removed and replaced with fresh media. The tissue culture plates were then incubated for 24 hours at 37° C., fixed with 100% methanol, and stained with Geimsa stain. Control experiments were done in the absence of peptide alone or in the absence of PT. All determinations were done in triplicate. […] The results reported in Table VIII show the maximum peptide concentration required to cause a 50% reduction in CHO cell clumping.

[7] = molecular target: T5, WGA-biotin binding to fetuin (Bos taurus, UniProt P12763); assay: biochemical; conditions: peptide mg/mL: S2PL 1.2, ACS2P1 1.0, S2(14-2.3) 1.0, S2P2 1.1, S2P3 0.51, S2P4 0.98, S2P6 0.85, S3P1 3.2, S3P2 3.1, S3P3 4.5, S3P4 3.3, S3P5 0.48, SPYGRC 4.4, S2(WGA) 1.0, WGA (62-73) 1.0; + enhancement, − inhibition
T5 sequence (P12763 19-359): T3 sequence (P12763 19-359)
Method: (§3) The solution was removed by aspiration and replaced with 100 μl of 1% BSA in PBS containing 0.05% Tween 20 (PBST). After incubation for 2-4 hours at room temperature, the microtiter wells were washed four times with 300 μl of PBST. Peptides ranging in concentration from 0.5 to 4.5 mg/ml in PBS (40 μl) were added to each well and PT-biotin (10 μl containing 10 ng in PBS) was then added to the microtiter wells. After incubating for 1 hour, the binding reaction was stopped by aspirating the solutions and the plate was washed with PBST (300 μl). Horseradish peroxidase-conjugated avidin (100 μl, 1/3000 dilution in PBST to a concentration of 0.3 μg/ml) was then added to the wells, and the plates were incubated at ambient temperature for 1 hour. After washing the wells as described above, the substrate solution [1 mM ABTS in 5 mM citrate buffer, pH 4.2, containing 0.1% hydrogen peroxide, v/v) was added and the plates were incubated for 30 minutes. Color development was recorded at 405 nm using a Titertek Multiskan MC plate reader. Maximum binding was determined in the absence of peptide, and background binding was measured in wells coated with BSA only. Binding assays for each peptide were done in duplicate. Binding inhibition experiments utilizing SNA-, WGA-, and MAL-biotin were performed as described above using 10 ng of each biotinylated lectin in PBS.

[8] = molecular target: T6, SNA-biotin binding to fetuin (Bos taurus, UniProt P12763); assay: biochemical; conditions: peptide mg/mL: S2PL 1.2, ACS2P1 1.0, S2(14-2.3) 1.0, S2P2 1.1, S2P3 0.51, S2P4 0.98, S2P6 0.85, S3P1 3.2, S3P2 3.1, S3P3 4.5, S3P4 3.3, S3P5 0.48, S3P9a 1.7, SPYGRC 4.4, S2(WGA) 1.0, WGA (62-73) 1.0; + enhancement, − inhibition
T6 sequence (P12763 19-359): T3 sequence (P12763 19-359)
Method: as §3

[9] = molecular target: T7, PT-biotin binding to asialofetuin (Bos taurus, UniProt P12763); assay: PT-biotin binding to asialofetuin, binding inhibition assay; design: species or system Bordetella pertussis; conditions: peptide mg/mL: S2PL 1.2, ACS2P1 1.0, S2P2 1.1, S2P3 0.51, S2P4 0.98, S2P6 0.85, S3P1 3.2, S3P2 3.1, S3P3 4.5, S3P4 3.3, S3P5 0.48, SPYGRC 4.4; + enhancement, − inhibition
T7 construct: made in house
T7 sequence (P12763 19-359): T3 sequence (P12763 19-359)
Method: as §1, §2

[10] = molecular target: T8, MAL-biotin binding to fetuin (Bos taurus, UniProt P12763); assay: MAL-biotin binding to fetuin, binding inhibition assay; design: species or system Maackia amurensis; conditions: peptide mg/mL: S2PL 1.2, ACS2P1 1.0, S2(14-2.3) 1.0, S2P2 1.1, S2P3 0.51, S2P4 0.98, S2P6 0.85, S3P1 3.2, S3P2 3.1, S3P3 4.5, S3P4 3.3, S3P5 0.48, S3P9a 1.7, SPYGRC 4.4, S2(WGA) 1.0, WGA (62-73) 1.0; + enhancement, − inhibition
T8 construct: purchased Sigma Chemical Company (fetuin); Boehringer Mannheim (MAL-biotin)
T8 sequence (P12763 19-359): T3 sequence (P12763 19-359)
Method: as §1, §2

[11] = molecular target: T9, ACS2P1-biotin binding to fetuin (Bos taurus, UniProt P12763); assay: biochemical; conditions: for Percent Change in Binding Activity Fetuin: peptide μM: ACS2P1 4.1, S2P2 42.5, SPYGRC 5520, S2P3 22.4, S2P4 6.0, S2P6 319, S3P1 1142, S3P2 934, S3P3 16.1, S3P4 6.4, S3P5 22.5, ACS2P1-biotin 0.1 μg, − inhibition, + enhancement
T9 construct: purchased Sigma Chemical Company
T9 sequence (P12763 19-359): T3 sequence (P12763 19-359)

Row | Molecule | Percent Changes in Binding Activity ACS2P1-biotin (n = 3) [2] | Percent Changes in Binding Activity SPYGRC-biotin (n = 3) [3] | Percent Changes in Binding Activity PT/fetuin [4] | Percent Change in Binding Activity Asialofetuin [5] | Maximal Inhibitory Concentration for Greater than 50% Inhibition [6] | Percent Changes in Binding Activity WGA/fetuin [7] | Percent Changes in Binding Activity SNA/fetuin [8] | Percent Changes in Binding Activity PT/asialo-fetuin [9] | Percent Changes in Binding Activity MAL/fetuin [10] | Percent Change in Binding Activity Fetuin [11] | other results
1 | OC[C@H]1O[C@@H](O[C@H]2[C@H](O)[C@@H](O)C(O)O[C@@H]2CO)[C@H](O)[C@@H](O)[C@H]1O (some centres unmarked) [Lactose] | +74 ± 7% | +20 ± 11% | – | – | – | – | – | – | – | – | inhibition of the binding of biotinylated peptide (ACS2P1-biotin) to fetuin [1]: failed to reduce the binding of ACS2P1-biotin
2 | CC(=O)N[C@H]1C(O)O[C@H](CO)[C@@H](O)[C@@H]1O (some centres unmarked) [N-Acetylglucosamine] | −10 ± 2% | +6 ± 5% | – | – | – | – | – | – | – | – | inhibition of the binding of biotinylated peptide (ACS2P1-biotin) to fetuin [1]: 10±2%
3 | CC[C@H](C)[C@H](NC(=O)CNC(=O)[C@@H]1CCCN1C(=O)[C@@H](NC(=O)[C@@H](N)CO)[C@@H](C)O)C(=O)N[C@H](C(=O)N[C@H](C(=O)N1CCC[C@H]1C(=O)N1CCC[C@H]1C(=O)N[C@@H](CCC(N)=O)C(=O)N[C@@H](CCC(=O)O)C(=O)N[C@@H](CCC(N)=O)C(=O)N[C@H](C(=O)N[C@H](C(=O)N[C@@H](CCC(N)=O)C(=O)N[C@@H](Cc1c[nH]cn1)C(=O)NCC(=O)N[C@@H](CO)C(=O)N1CCC[C@H]1C(=O)N[C@@H](Cc1ccc(O)cc1)C(=O)NCC(=O)N[C@@H](CCCNC(=N)N)C(=O)N[C@@H](CS)C(=O)O)[C@@H](C)O)[C@@H](C)CC)[C@@H](C)CC)C(C)C [Peptide S2P2] | – | – | +58 ± 4% | +6 ± 1% | NI (Not inhibitory at a peptide concentration of 300 ng/ml.) | −15 ± 2% | −1 ± 1% | +33(1) Percent | +14 ± 2% | −50% | effect on PT-biotin binding to fetuin, in words [4]: enhancement of binding of PT to fetuin; enhancement of PT-biotin binding to fetuin relative to control experiments in the absence of peptide ([4]; initial peptide screening): ~2 fold; competition for the binding of ACS2P1-biotin to asialofetuin, in words [5]: unable to compete for the binding of ACS2P1-biotin to asialofetuin; IC50 [11]: 42.5 µM; decrease in affinity relative to ACS2P1 ([11]; from IC50 values): 10 fold
4 | CC(=O)N[C@H]1[C@H]([C@H](O)[C@H](O)CO)OC(O)(C(=O)O)C[C@@H]1O (some centres unmarked) [Sialic acid] | – | +9 ± 8% | – | – | – | – | – | – | – | – | –
5 | OC[C@H]1O[C@@](CO)(O[C@H]2O[C@H](CO)[C@@H](O)[C@H](O)[C@H]2O)[C@@H](O)[C@@H]1O [Sucrose] | 0 ± 3% | – | – | – | – | – | – | – | – | – | –
6 | PKALFTQQGGAYGRC [Peptide S3P1] | – | – | +54 ± 25% | +4 ± 0% | NI (Not inhibitory at a peptide concentration of 300 ng/ml.) | −9 ± 4% | −2 ± 1% | +45 ± 16% | +4 ± 6% | +245 ± 28% | inhibition of ACS2P1-biotin binding to fetuin, in words [11]: inability
7 | Sialyllactose | −46 ± 3% | −24 ± 6% | – | – | – | – | – | – | – | – | –
8 | VAPGIVIPPKALFTQQGGAYGRC [Peptide S3P2] | – | – | +77 ± 59% | +12 ± 16% | NI (Not inhibitory at a peptide concentration of 300 ng/ml.) | +9 ± 4% | +3 ± 3% | +82 ± 11% | +12 ± 16% | +88 ± 72% | inhibition of ACS2P1-biotin binding to fetuin, in words [11]: inability
